Results as given in patent US20050221328A1, “Inhibitors of inflammatory gene activity and cholesterol biosynthesis” (Wyeth, priority 2002, published 2005).

Tests used:
[1] = system: Fnk, JAB, LIX, bcl-3 and SHP; assay: Liver expression of Fnk, JAB, LIX, bcl-3 and SHP by realtime PCR after estrogen receptor ligand pretreatment and IL-1β
Protocol: Referring to FIG. 3a, to distinguish these two mechanisms, the IL-1β fold induction of Fnk, JAB, LIX, and bcl-3 and the IL-1β fold repression of SHP was quantified in animals pretreated with vehicle (black bars) or 100 ug/kg/day EE (grey bars). Liver RNA levels of each gene (mean +/−SEM) were determined by realtime PCR of RNA from each individual animal.
Referring to FIGS. 4a, 4b, 4c, 4d and 4e, experiments were conducted to determine whether EE blocks IL-1β induction of gene expression by an estrogen receptor (ER) dependent mechanism. Estrogens can regulate gene expression by many mechanisms including ER independent pathways such as antioxidant mechanisms. […] Liver expression levels of Fnk, JAB, LIX, bcl-3 and SHP (mean +/−SEM) were determined by realtime PCR.
Referring to FIGS. 5a, 5b, 5c, 5d, and 5e, experiments were conducted to determine whether ERα is required for EE regulation of gene expression in the liver. To determine whether ERα or ERβ mediated the EE effects on IL-1β gene expression in the liver, C57BL/6 wild type mice, C57BL/6 ERαKO mice, or 129 ERβKO mice were pretreated with vehicle (black bars) or […] EE (gray bars) for 5 days followed by a 1 hour treatment with IL-1β. Liver expression levels of Fnk, JAB, LIX, bcl-3, and SHP (mean +/−SEM) were quantified by realtime PCR, with expression in animals receiving vehicle+PBS defined as 1.0.

[2] = system: mouse liver; assay: EE induction of gene expression in the mouse liver (GeneChip); assay type: in vivo; settings: 100 ug/kg/day EE sc 5 days;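 note: ovariectomized C57BL/6 mice, liver polyA RNA on Affymetrix murine 11K GeneChips, fold expression versus vehicle-pretreated PBS-injected mice set to 1.0, mean of two independent experiments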
Protocol: Ovariectomized C57BL/6 mice were pretreated by subcutaneous administration of either corn oil/ethanol vehicle or 100 ug/kg/day ethynylestradiol (EE) for 5 days. […] One hour later the livers were removed and polyA RNA was prepared. Global gene expression was determined by analysis using murine 11K GeneChips from Affymetrix. For each gene, the level of expression in animals receiving vehicle pretreatment plus PBS was defined as 1.0, with the expression levels in the mice receiving vehicle pretreatment±IL-1β or EE pretreatment±IL-1β defined relative to this. The results shown are the mean from two independent experiments.
To determine whether EE induction of any other gene could explain the inhibition of IL-1β gene inductions, the GeneChip results were analyzed for EE induction of gene expression.

[3] = system: mouse liver; settings: GeneChip, 1 h after 20 ug/kg IL-1β ip, pretreated 5 days with vehicle or 100 ug/kg/day EE sc, vehicle+PBS=1.0;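 note: ovariectomized C57BL/6 mice, liver polyA RNA profiled, values are fold expression relative to vehicle plus PBS, averaged over two independent experiments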
Protocol: Experiments were conducted to evaluate IL-1β regulation of gene expression in the mouse liver. Ovariectomized C57BL/6 mice were pretreated by subcutaneous administration of either corn oil/ethanol vehicle or 100 ug/kg/day ethynylestradiol (EE) for 5 days. On the fifth day, the mice received an intraperitoneal injection of either PBS or 20 ug/kg IL-1β in PBS. One hour later the livers were removed and polyA RNA was prepared. Global gene expression was determined by analysis using murine 11K GeneChips from Affymetrix. For each gene, the level of expression in animals receiving vehicle pretreatment plus PBS was defined as 1.0, with the expression levels in the mice receiving vehicle pretreatment±IL-1β or EE pretreatment±IL-1β defined relative to this. The results shown are the mean from two independent experiments.
The fold regulation of each gene is plotted for animals receiving vehicle pretreatment x-axis) vs. animals receiving pretreatment with EE (y-axis). Genes with IL-1β induction unaffected by EE pretreatment would lie along the dotted diagonal.

[4] = mouse liver, EE treated mice vs vehicle treated mice

C#C[C@]1(O)CC[C@H]2[C@@H]3CCc4cc(O)ccc4[C@H]3CC[C@@]21C [EE, ethynylestradiol]
EE inhibition of IL-1β regulation of Fnk, JAB, LIX, bcl-3, SHP in animals lacking ERβ vs wild type ([1]; 129 ERβKO mice vs C57BL/6 wild type, 10 ug/kg/day EE 5 days, IL-1β 1 hour): comparable | effect on IL-1β regulation of Fnk, JAB, LIX, bcl-3, SHP in animals lacking ERα ([1]; C57BL/6 ERαKO mice, 10 ug/kg/day EE 5 days, IL-1β 1 hour): no effect | effect on regulation of liver Fnk, JAB, LIX, bcl-3 and SHP expression vs IL-1β alone ([1]; mice, 100 ug/kg/day EE, 1 or 10 mg/kg/day E2, 30 mg/kg/day genistein, 5 mg/kg/day raloxifene, 10 mg/kg/day ICI182780, plus IL-1β): greatest effect | IL-1 repression of SHP expression ([1]; mouse liver, realtime PCR, vehicle treated or 100 ug/kg/day EE treated animals): 85% | IL-1 induction of bcl-3 ([1]; mouse liver, realtime PCR, vehicle treated or 100 ug/kg/day EE treated mice, IL-1 vs PBS): 5.2 fold | IL-1β fold induction of Fnk, JAB, and LIX ([1]; mouse liver, 100 ug/kg/day EE pretreated vs vehicle): reduced | IL-1β fold regulation for bcl-3 and SHP ([1]; mouse liver, 100 ug/kg/day EE treated vs vehicle): the same | inhibition of IL-1β induction of Fnk, JAB, LIX and bcl-3 ([1]; mouse liver, 100 ug/kg/day EE, 30 mg/kg/day genistein, 5 mg/kg/day raloxifene): inhibited | basal expression of SHP [1, 4]: increased | basal expression of bcl-3 [1, 4]: repressed | EE Induction C1Qc (C1qc) [2]: 2.3 | EE Induction C1qB (C1qb) [2]: 2.8 | EE Induction CD53 (Cd53) [2]: 2.9 | EE Induction CD68 antigen (Cd68) [2]: 3.1 | EE Induction CD97 (Cd97) [2]: 6.0 | EE Induction Cytochrome P450, 17 (Cyp17) [2]: 32.3 | EE Induction F4/80 (Emr1) [2]: 3.1 | EE Induction H2A histone family, member X (H2afx) [2]: 5.1 | EE Induction Keratin complex 2, basic, gene 4 (Krt2-4) [2]: 38.0 | EE Induction apolipoprotein A-IV (Apoa4) [2]: 3.5 | EE Induction apolipoprotein C2 (Apoc2) [2]: 2.2 | EE Induction apoptosis inhibitory 6 (Api6) [2]: 3.3 | EE Induction cadherin 1 (Cdh1) [2]: 2.6 | EE Induction cathepsin S (Ctss) [2]: 4.0 | EE Induction cell division cycle 2 homolog A (Cdc2a) [2]: 4.6 | EE Induction colony stimulating factor 1 receptor (Csf1r) [2]: 2.8 | EE Induction creatine kinase B (Ckb) [2]: 13.0 | EE Induction cytochrome P450, 7b1 (Cyp7b1) [2]: 21.1 | EE Induction desmocollin 2 (Dsc2) [2]: 5.0 | EE Induction fatty acid binding protein 7, brain (Fabp7) [2]: 4.8 | EE Induction interferon activated gene 203 (lfi203) [2]: 2.5 | EE Induction interleukin 17 receptor (Il17r) [2]: 3.5 | EE Induction leukemia inhibitory factor receptor (Lifr) [2]: 5.1 | EE Induction lymphocyte antigen 86 (Ly86) [2]: 4.3 | EE Induction lysosomal thiol reductase IP30 precursor (IP30) [2]: 3.7 | EE Induction mannose receptor, C type 1 (Mrc1) [2]: 2.6 | EE Induction myo-inositol-1-phosphate synthase (aa221219) [2]: 167.1 | EE Induction properdin (Pfc) [2]: 2.9 | EE Induction prostaglandin D2 synthase (Ptgds) [2]: 72.8 | EE Induction proteinase 3 (Prtn3) [2]: 24.1 | EE Induction pyrroline-5-carboxylate synthetase (Pycs) [2]: 3.3 | EE Induction serum/glucocorticoid regulated kinase (Sgk) [2]: 4.5 | EE Induction signal transducer and activator of transcription 5A (Stat5a) [2]: 4.1 | EE Induction solute carrier family 11, member 1 (Slc11a1) [2]: 3.6 | EE Induction stathmin (Kist) [2]: 3.5 | EE Induction testosterone 16-alpha-hydroxylase (C-16-alpha) (Cyp2d9) [2]: 2.3 | EE Induction trefoil factor 3, intestinal (Tff3) [2]: 16.3 | EE Induction type llb Na/phosphate-cotransporter (Npt2b) [2]: 13.5 | IL-1 Induction A20 (Tnfaip3) [3]: 11.4 fold | IL-1 Induction B94, TNF-α induced protein 2 (Tnfaip2) [3]: 17.7 fold | IL-1 Induction C/EBPδ (Cebpd) [3]: 5.2 fold | IL-1 Induction CD14 (Cd14) [3]: 6.1 fold | IL-1 Induction CD83 (Cd83) [3]: 4.0 fold | IL-1 Induction E-selectin (Sele) [3]: 5.2 fold | IL-1 Induction Ets transcription factor ELF3 (Elf3) [3]: 6.7 fold | IL-1 Induction G0/G1 switch gene 2 (G0s2) [3]: 0.05 fold | IL-1 Induction GTP binding protein IRG-47 (lfi47) [3]: 3.2 fold | IL-1 Induction Gadd45 (Gadd45a) [3]: 3.6 fold | IL-1 Induction Glvr-1 (Slc20a1) [3]: 5.8 fold | IL-1 Induction H-2Ld (H-2L) [3]: 4.1 fold | IL-1 Induction ICAM-1 (lcam1) [3]: 38.4 fold | IL-1 Induction IL-1m (Il1m) [3]: 18.9 fold | IL-1 Induction IL-15 receptor (Il15ra) [3]: 2.7 fold | IL-1 Induction IxBa (Nfkbia) [3]: 7.4 fold | IL-1 Induction JAB, suppressor of cytokine signaling 1 (Cish1) [3]: 1.4 fold
